Assay results as given in patent publication EP4574819A1, “DIAZINONE COMPOUNDS FOR THE CONTROL OF INVERTEBRATE PESTS” (priority 2023, dated 2025).

Experiments:
Type in all cases: in vivo
[1] = test system: Yellow fever mosquito (Aedes aegypti); assay: whole plant or invertebrate; details: larval mortality after 2 days, in comparison with untreated controls
Protocol: B.4 Yellow fever mosquito (Aedes aegypti)
For evaluating control of yellow fever mosquito (Aedes aegypti) the test unit consists of 96-well-microtiter plates containing 200µl of tap water per well and 5-15 freshly hatched A. aegypti larvae.
The active compounds are formulated using a solution containing 75% (v/v) water and 25% (v/v) DMSO. Different concentrations of formulated compounds or mixtures are sprayed onto the insect diet at 2.5µl, using a custom-built micro atomizer, at two replications.
After application, microtiter plates are incubated at 28±1°C, 80±5 % RH for 2 days. Larval mortality is then visually assessed.

[2] = test system: Boll weevil (Anthonomus grandis); assay: Boll weevil (Anthonomus grandis) egg/larval mortality on sprayed insect diet in 96-well microtiter plates; details: 2500 ppm; egg and larval mortality after 5 days; in comparison with untreated controls
Protocol: B.2 Boll weevil (Anthonomus grandis)
For evaluating control of boll weevil (Anthonomus grandis) the test unit consists of 96-well-microtiter plates containing an insect diet and 5-10 A. grandis eggs.
The compounds are formulated using a solution containing 75% v/v water and 25% v/v DMSO. Different concentrations of formulated compounds are sprayed onto the insect diet at 5µl, using a custom-built micro atomizer, at two replications.
After application, microtiter plates are incubated at about 25 ± 1°C and about 75 ± 5 % relative humidity for 5 days. Egg and larval mortality is then visually assessed.

[3] = test system: Diamond back moth (Plutella xylostella); assay: Diamond back moth (Plutella xylostella) cabbage leaf dip test; details: 3rd instar larvae, 72 hours after treatment, in comparison with untreated controls
Protocol: B.3 Diamond back moth (Plutella xylostella)
The active compound was dissolved at the desired concentration in a mixture of 1:1 (vol:vol) distilled water: acetone. Surfactant (Kinetic HV) was added at a rate of 0.01% (vol/vol). The test solution was prepared on the day of use.
Leaves of cabbage were dipped in test solution and air-dried. Treated leaves were placed in petri dishes lined with moist filter paper and inoculated with ten 3rd instar larvae. Mortality was recorded 72 hours after treatment. Feeding damages were also recorded using a scale of 0-100%.

[4] = test system: Green peach aphid (Myzus persicae); assay: Green peach aphid (Myzus persicae) systemic test, artificial diet under artificial membrane; details: adult aphids, 3 days, in comparison with untreated controls
Excerpt: B.5 Green peach aphid (Myzus persicae)
For evaluating control of green peach aphid (Myzus persicae) through systemic means, the test unit consisted of 96-well-microtiter plates containing liquid artificial diet under an artificial membrane.
The compounds were formulated using a solution containing 75% v/v water and 25% v/v DMSO. Different concentrations of formulated compounds were pipetted into the aphid diet, using a custom built pipetter, at two replications.
After application, 5 - 8 adult aphids were placed on the artificial membrane inside the microtiter plate wells. The aphids were then allowed to suck on the treated aphid diet and incubated at about 23 ± 1°C and about 50 ± 5 % relative humidity for 3 days. Aphid mortality and fecundity was then visually assessed.

[5] = test system: Tobacco budworm (Heliothis virescens); assay: Tobacco budworm (Heliothis virescens) egg/larval mortality on sprayed insect diet in 96-well microtiter plates; details: 120 h, egg and larval mortality after 5 days, in comparison with untreated controls
Protocol: B.1 Tobacco budworm (Heliothis virescens)
For evaluating control of tobacco budworm (Heliothis virescens) the test unit consists of 96-well-microtiter plates containing an insect diet and 15-25 H. virescens eggs.
The compounds are formulated using a solution containing 75% v/v water and 25% v/v DMSO. Different concentrations of formulated compounds are sprayed onto the insect diet at 10µl, using a custom-built micro atomizer, at two replications.
After application, microtiter plates are incubated at about 28 ± 1°C and about 80 ± 5 % relative humidity for 5 days. Egg and larval mortality is then visually assessed.

| SMILES | mortality ([1]; 2500 ppm) | mortality [2] | mortality ([3]; 2500 ppm) | mortality ([4]; 2500 ppm) | mortality at 2500 ppm ([1]; Aedes aegypti, 48 h) [%] | mortality at 2500 ppm ([3]; Plutella xylostella, foliar) [%] | mortality at 2500 ppm ([4]; Myzus persicae, 72 h) [%] | mortality at 2500 ppm [5] [%] |
| --- | --- | --- | --- | --- | --- | --- | --- | --- |
| CC(NC(=O)c1cc(C(F)(F)F)cc(C(F)(F)F)c1)c1nccnc1C1=NNC(=O)CN1C (centres unmarked) [Compound I-1, N-(1-(3-(4-Methyl-6-oxo-1,4,5,6-tetrahydro-1,2,4-triazin-3-yl)pyrazin-2-yl)ethyl)-3,5-bis(trifluoromethyl)benzamide] | at least 75% | at least 75% | at least 75% | at least 75% |  |  |  |  |
| CC(NC(=O)c1cc(C(F)(F)F)cc(C(F)(F)F)c1)c1nccnc1C1=NN(C)C(=O)CO1 (centres unmarked) [Compound I-4, N-(1-(3-(4-methyl-5-oxo-5,6-dihydro-4H-1,3,4-oxadiazin-2-yl)pyrazin-2-yl)ethyl)-3,5-bis(trifluoromethyl)benzamide] |  |  |  |  | ≥ 75 | ≥ 75 | ≥ 75 | ≥ 75 |
